The source made the active and inactive calls. No cut-off for these calls is given here.
Assays:
[1] = test system: Pseudomonas aeruginosa; test: Antibacterial activity against Pseudomonas aeruginosa PAO1 assessed as inhibition of bacterial growth incubated for 18 to 20 hrs in presence of MH medium by broth microdilution assay; type: functional, organism-based
[2] = test system: Pseudomonas aeruginosa; test: Antibacterial activity against multi-drug resistant Pseudomonas aeruginosa clinical isolate 1167 assessed as inhibition of bacterial growth by measuring minimum inhibitory concentration incubated for 18 to 20 hrs in presence of M9 medium by broth microdilution assay; type: functional; conditions: time 18-20 hrs
[3] = test system: Escherichia coli; test: Antibacterial activity against Escherichia coli ATCC 25922 assessed as inhibition of bacterial growth by measuring minimum inhibitory concentration incubated for 18 to 20 hrs in presence of M9 medium by broth microdilution assay; type: functional; conditions: time 18-20 hrs
[4] = test system: Staphylococcus aureus; test: Antibacterial activity against Staphylococcus aureus ATCC 25923 assessed as inhibition of bacterial growth incubated for 18 to 20 hrs in presence of M9 medium by broth microdilution assay; type: functional, organism-based; conditions: time 18-20 hrs
[5] = test system: Pseudomonas aeruginosa; test: Antibacterial activity against multi-drug resistant Pseudomonas aeruginosa clinical isolate FB assessed as inhibition of bacterial growth by measuring minimum inhibitory concentration incubated for 18 to 20 hrs in presence of M9 medium by broth microdilution assay; type: functional; conditions: time 18-20 hrs
[6] = test system: Klebsiella pneumoniae; test: Antibacterial activity against Klebsiella pneumoniae ATCC 700603 assessed as inhibition of bacterial growth by measuring minimum inhibitory concentration incubated for 18 to 20 hrs in presence of M9 medium by broth microdilution assay; type: functional; conditions: time 18-20 hrs
[7] = test system: Pseudomonas aeruginosa; test: Antibacterial activity against multi-drug resistant Pseudomonas aeruginosa clinical isolate 1121 assessed as inhibition of bacterial growth by measuring minimum inhibitory concentration incubated for 18 to 20 hrs in presence of M9 medium by broth microdilution assay; type: functional; conditions: time 18-20 hrs
[8] = test system: Pseudomonas aeruginosa; test: Antibacterial activity against Pseudomonas aeruginosa PAO1 assessed as inhibition of bacterial growth incubated for 18 to 20 hrs in presence of M9 medium by broth microdilution assay; type: functional, organism-based
[9] = test system: Pseudomonas aeruginosa; test: Antibacterial activity against Pseudomonas aeruginosa PAO1 assessed as inhibition of bacterial growth by measuring minimum inhibitory concentration incubated for 18 to 20 hrs in presence of MH medium by broth microdilution assay; type: functional; conditions: time 18-20 hrs
[10] = test system: Pseudomonas aeruginosa; test: Antibacterial activity against Pseudomonas aeruginosa ATCC27853 assessed as inhibition of bacterial growth by measuring minimum inhibitory concentration incubated for 18 to 20 hrs in presence of M9 medium by broth microdilution assay; type: functional; conditions: time 18-20 hrs
[11] = test system: Pseudomonas aeruginosa; test: Antibacterial activity against multi-drug resistant Pseudomonas aeruginosa clinical isolate 1129 assessed as inhibition of bacterial growth by measuring minimum inhibitory concentration incubated for 18 to 20 hrs in presence of M9 medium by broth microdilution assay; type: functional; conditions: time 18-20 hrs
[12] = test system: Pseudomonas aeruginosa; test: Antibacterial activity against Pseudomonas aeruginosa PAO1 assessed as inhibition of bacterial growth incubated for 18 to 20 hrs in presence of M9 and FeCl3 medium by broth microdilution assay; type: functional, organism-based
[13] = test system: Staphylococcus aureus; test: Antibacterial activity against Staphylococcus aureus ATCC 25923 assessed as inhibition of bacterial growth by measuring minimum inhibitory concentration incubated for 18 to 20 hrs in presence of M9 medium by broth microdilution assay; type: functional; conditions: time 18-20 hrs
[14] = test system: Pseudomonas aeruginosa; test: Antibacterial activity against Pseudomonas aeruginosa PAO1 assessed as inhibition of bacterial growth by measuring minimum inhibitory concentration incubated for 18 to 20 hrs in presence of M9 and FeCl3 medium by broth microdilution assay; type: functional; conditions: time 18-20 hrs
[15] = test system: Pseudomonas aeruginosa; test: Antibacterial activity against Pseudomonas aeruginosa PAO1 assessed as inhibition of bacterial growth by measuring minimum inhibitory concentration incubated for 18 to 20 hrs in presence of M9 medium by broth microdilution assay; type: functional; conditions: time 18-20 hrs
[16] = test system: Pseudomonas aeruginosa; test: Antibacterial activity against Pseudomonas aeruginosa PAO1 infected in Caenorhabditis elegans assessed as increase in worm survival rate at 32 ug/ml incubated for 60 hrs; type: functional, organism-based; conditions: dose 32.0 µg/ml
[17] = test system: Pseudomonas aeruginosa; test: Antibacterial activity against Pseudomonas aeruginosa PAO1 assessed as inhibition of bacterial growth at 32 ug/ml incubated upto 24 hrs by time-kill based microplate reader assay; type: functional, organism-based; conditions: dose 32.0 µg/ml
[18] = test system: Vero; test: Cytotoxicity against green monkey Vero cells assessed as reduction in cell viability at 1 to 32 ug/ml incubated for 24 hrs by MTT assay; type: toxicity, cell-based; conditions: chlorocebus sabaeus, dose 1-32 µg/ml
[19] = test system: Staphylococcus aureus; test: Bactericidal activity against Staphylococcus aureus ATCC 25923 assessed as inhibition of bacterial growth at 2 times MIC incubated upto 24 hrs by time-kill based microplate reader assay; type: functional, organism-based

| Structure (SMILES) | IC50 [1] | MIC [2] | MIC [3] | Activity [4] | MIC [5] | MIC [6] | MIC [7] | IC50 [8] | MIC [9] | MIC [10] | MIC [11] | IC50 [12] | MIC [13] | MIC [14] | MIC [15] | Activity [16] | Activity [17] | Activity [18] | Activity [19] |
| --- | --- | --- | --- | --- | --- | --- | --- | --- | --- | --- | --- | --- | --- | --- | --- | --- | --- | --- | --- |
| CC(C)=CCc1c(O)ccc(C(=O)/C=C/c2ccc(OCCCCCCOCc3c(O)c(=O)cc(C)n3C)cc2)c1O | 10.2 mg/L | 16 mg/L | > 128 mg/L | inactive | 32 mg/L | > 128 mg/L | 8 mg/L | 7.87 mg/L | > 128 mg/L | 32 mg/L | 8 mg/L | > 128 mg/L | > 128 mg/L | > 128 mg/L | 32 mg/L |  |  |  |  |
| CC(C)=CCc1c(O)ccc(C(=O)/C=C/c2ccc(OCCCCCCOCc3cc(=O)c(O)cn3C)cc2)c1O | 7.31 mg/L | 8 mg/L | > 128 mg/L | inactive | 16 mg/L | > 128 mg/L | 8 mg/L | 3.39 mg/L | 16 mg/L | 32 mg/L | 8 mg/L | > 128 mg/L | > 128 mg/L | > 128 mg/L | 16 mg/L |  |  |  |  |
| CC(C)=CCc1c(O)ccc(C(=O)/C=C/c2ccc(O)cc2)c1O [ISOBAVACHALCONE] | > 128 mg/L | > 128 mg/L | > 128 mg/L |  | > 128 mg/L | > 128 mg/L | > 128 mg/L | > 128 mg/L | > 128 mg/L | > 128 mg/L | > 128 mg/L | > 128 mg/L | 4 mg/L | > 128 mg/L | > 128 mg/L | inactive | inactive | Non-Toxic | Active |
| CC1(C)S[C@@H]2[C@H](NC(=O)[C@H](N)c3ccccc3)C(=O)N2[C@H]1C(=O)O [AMPICILLIN] | 12.6 mg/L | > 128 mg/L | 8 mg/L |  | > 128 mg/L | > 128 mg/L | > 128 mg/L | 12.7 mg/L | 32 mg/L | > 128 mg/L | > 128 mg/L | 6.06 mg/L | 0.25 mg/L | 32 mg/L | 32 mg/L |  |  |  |  |
| CCn1cc(C(=O)O)c(=O)c2cc(F)c(N3CCNCC3)cc21 [NORFLOXACIN] | 0.03 mg/L | 0.25 mg/L | 0.015 mg/L |  | 0.5 mg/L | 2 mg/L | 0.5 mg/L | 0.08 mg/L | 0.125 mg/L | 1 mg/L | 1 mg/L | 0.07 mg/L | 2 mg/L | 0.25 mg/L | 0.25 mg/L |  |  |  |  |
| CC(C)=CCc1c(OCCCCCC(=O)NCc2cc(=O)c(O)cn2C)ccc(C(=O)/C=C/c2ccc(O)cc2)c1O | 19.7 mg/L | 8 mg/L | > 128 mg/L |  | 16 mg/L | > 128 mg/L | 8 mg/L | 1.72 mg/L | 32 mg/L | 32 mg/L | 16 mg/L | > 128 mg/L | 32 mg/L | > 128 mg/L | 16 mg/L |  |  |  |  |

From ChEMBL document CHEMBL5620348, “3-Hydroxy-pyridin-4(1H)-ones as siderophores mediated delivery of isobavachalcone enhances antibacterial activity against pathogenic Pseudomonas aeruginosa” (Eur J Med Chem, 2023)
